Experimental data from patent publication US9718840B2, “Condensed 5-oxazolidinone derivative” (SUMITOMO DAINIPPON PHARMA CO., LTD., priority 2014, dated 2017).

Assays:
[1] = Ester metabolism stability test: stability in human liver; assay type: in vitro ADME; conditions: 37° C., 20 minutes, with NADPH
Experimental: A reaction solution containing 5 μL of human liver S9 (manufactured by Sekisui XenoTech, LLC, 20 mg/mL) mixed with 20 μL of 500 mmol/L Kpi (pH 7.4), 40 μL of a 5 mmol/L aqueous solution of NADPH (manufactured by Oriental Yeast Co., Ltd.), and 133 μL of ion-exchange water was added to 2 μL of a DMSO solution containing a 100 μmol/L test substance, and the mixture was incubated at 37° C. for 20 minutes. After the incubation, the metabolic reaction was terminated by the addition of 600 μL of acetonitrile.

human plasma = assay: Ester metabolism stability test: stability in human plasma; assay type: in vitro ADME; conditions: 37° C., 20 minutes
Experimental: 198 μL of human plasma (manufactured by Cosmo Bio Inc.) was added to 2 μL of a DMSO solution containing a 100 μmol/L test substance, and the mixture was incubated at 37° C. for 20 minutes. After the incubation, the metabolic reaction was terminated by the addition of 600 μL of acetonitrile.

[2] = Ester metabolism stability test: metabolite identification by LC-MS
Excerpt: The metabolites were identified using LC (LC-Nexera X2 manufactured by Shimadzu Corp.)-MS (API4000 manufactured by AB Sciex Pte Ltd.).

[3] = metabolites identified using LC-MS

## CC1(C)OC(=O)c2cc3cc(NC(=O)[C@@H]4[C@H](C5CCCCC5)CCN4C(=O)[C@H]4CC[C@H]([C@H](N)CF)CC4)ccc3n21.Cl [Example 1, (2S,3S)-1-({trans-4-[(1S)-1-Amino-2-fluoroethyl]cyclohexyl}carbonyl)-N-(3,3-dimethyl-1-oxo-1H-[1,3]oxazolo[3,4-a]indol-7-yl)-3-cyclohexylpyrrolidine-2-carboxamide hydrochloride]
[1]
  Residual rate (%) Human liver S9: 87%
Human plasma
  Residual rate (%) Human plasma: 29%
[2]; [3]
  Metabolite formed (conversion by metabolism): converted to the compound of Reference Example 2-6

## Cl.N[C@H](CF)[C@H]1CC[C@H](C(=O)N2CC[C@@H](C3CCCCC3)[C@H]2C(=O)Nc2ccc3c(c2)cc2n3C(CF)(CF)OC2=O)CC1 [Example 6, (3S)-1-({trans-4-[(1S)-1-amino-2-fluoroethyl]cyclohexyl}carbonyl)-N-[3,3-bis(fluoromethyl)-1-oxo-1H-[1,3]oxazolo[3,4-a]indol-7-yl]-3-cyclohexyl-L-prolinamide hydrochloride]
[1]
  Residual rate (%) Human liver S9: 67%
Human plasma
  Residual rate (%) Human plasma: 7.9%
[2]; [3]
  Metabolite formed (conversion by metabolism): converted to the compound of Reference Example 2-6

## CO[C@H]1CC[C@H]([C@@H]2CCN(C(=O)[C@H]3CC[C@H]([C@H](N)CF)CC3)[C@@H]2C(=O)Nc2ccc3c(c2)cc2n3C(C)(C)OC2=O)CC1.Cl [Example 10, (3S)-1-({trans-4-[(1S)-1-amino-2-fluoroethyl]cyclohexyl}carbonyl)-N-(3,3-dimethyl-1-oxo-1H-[1,3]oxazolo[3,4-a]indol-7-yl)-3-(trans-4-methoxycyclohexyl)-L-prolinamide hydrochloride]
[1]
  Residual rate (%) Human liver S9: 98%
Human plasma
  Residual rate (%) Human plasma: 6.7%
[2]; [3]
  Metabolite formed (conversion by metabolism): converted to the compound of Example 24

## CO[C@H]1CC[C@H]([C@@H]2CCN(C(=O)[C@H]3CC[C@H]([C@H](N)CF)CC3)[C@@H]2C(=O)Nc2ccc3c(c2)cc2n3C(CF)(CF)OC2=O)CC1 [Example 13, (3S)-1-({trans-4-[(1S)-1-amino-2-fluoroethyl]cyclohexyl}carbonyl)-N-[3,3-bis(fluoromethyl)-1-oxo-1H-[1,3]oxazolo[3,4-a]indol-7-yl]-3-(trans-4-methoxycyclohexyl)-L-prolinamide]
[1]
  Residual rate (%) Human liver S9: 69%
Human plasma
  Residual rate (%) Human plasma: 21%
[2]; human, 20 min, 1 μmol/L
  Metabolite formed (conversion by metabolism): converted to the compound of Example 24

## CO[C@H]1CC[C@H]([C@@H]2CCN(C(=O)[C@H]3CC[C@H]([C@H](N)CF)CC3)[C@@H]2C(=O)Nc2ccc3c(c2)cc2n3C3(CCC3)OC2=O)CC1 [Example 14, (3S)-1-({trans-4-[(1S)-1-amino-2-fluoroethyl]cyclohexyl}carbonyl)-3-(trans-4-methoxycyclohexyl)-N-(1′-oxo-1′H-spiro[cyclobutane-1,3′-[1,3]oxazolo[3,4-a]indol]-7′-yl)-L-prolinamide]
[1]
  Residual rate (%) Human liver S9: 47%
Human plasma
  Residual rate (%) Human plasma: <1%
[2]; human, 20 min, 1 μmol/L
  Metabolite formed (conversion by metabolism): converted to the compound of Example 24

## CC1(C)OC(=O)c2cc3cc(NC(=O)[C@@H]4[C@H](N5CCCCC5)CCN4C(=O)[C@H]4CC[C@H]([C@H](N)CF)CC4)ccc3n21 [Example 15, (2S,3R)-1-({trans-4-[(1S)-1-Amino-2-fluoroethyl]cyclohexyl}carbonyl)-N-(3,3-dimethyl-1-oxo-1H-[1,3]oxazolo[3,4-a]indol-7-yl)-3-(piperidin-1-yl)pyrrolidine-2-carboxamide 2-trifluoroacetate]
[1]
  Residual rate (%) Human liver S9: 82%
Human plasma
  Residual rate (%) Human plasma: 14%
[2]; human, 20 min, 1 μmol/L
  Metabolite formed (conversion by metabolism): Example 25

## CC1(C)OC(=O)c2cc3cc(NC(=O)[C@@H]4[C@H](C5CCCCC5)CCN4C(=O)[C@H]4CC[C@H](CN)CC4)ccc3n21.Cl [Example 17, (3S)-1-{[trans-4-(aminomethyl)cyclohexyl]carbonyl}-3-cyclohexyl-N-(3,3-dimethyl-1-oxo-1H-[1,3]oxazolo[3,4-a]indol-7-yl)-L-prolinamide]
[1]
  Residual rate (%) Human liver S9: >99%
Human plasma
  Residual rate (%) Human plasma: 50%
[2]; human, 20 min, 1 μmol/L
  Metabolite formed (conversion by metabolism): converted to the compound of Example 23
